Results: patent US20240409559A1, “CRYSTALLINE FORM OF AZALACTAM COMPOUND” (PFIZER INC., priority 2021, published 2024)

What was measured:
[1] = Thermal analysis: dehydration by TGA; type: physicochemical
[2] = Moisture sorption/desorption by dynamic vapor sorption (DVS), with post-DVS PXRD; type: physicochemical
Description: This example provides characterization data on PF-07265028 Form 1 from a sample obtained using a procedure disclosed in International Patent Publication No. WO2021/220185, using powder x-ray diffraction and dynamic vapor sorption to support the preparation of a disclosure. Form 1 is a crystalline hygroscopic tetrahydrate with multiple powder patterns depending on temperature and humidity. […] The dehydration risk can pose challenges to API isolation, storage and drug product manufacture. Maintaining the proper water content is considered to be difficult for Form 1.

| Structure (SMILES) | Dehydration (TGA)-Hydrated/Solvated, weight loss [1] | Hygroscopicity (in words) [2] | Moisture Sorption/Desorption-Hydrate (DVS): Change in mass-ref (%) ([2]; 75% RH) | Moisture Sorption/Desorption-Hydrate (DVS): Change in mass-ref (%) ([2]; 90% RH) | Crystallinity after dehydration ([2]; after dehydration, PXRD after the water sorption experiment) | Post-DVS PXRD result ([2]; after water sorption experiment) | Moisture Sorption/Desorption-Hydrate (DVS): dehydration state ([2]; at 3% RH) | Moisture Sorption/Desorption-Hydrate (DVS): Change in mass-ref (%) ([2]; at 60% RH) | Moisture Sorption/Desorption-Hydrate (DVS): rehydrate at or below 10% RH ([2]; at or below 10% RH) | Rehydration at high humidity conditions ([2]; high humidity conditions, after dehydration) | Post-DVS PXRD compared with in-going material ([2]; after DVS experiment) | Hygroscopicity: Moisture Sorption (DVS)-Anhydrous ([2]; at 60% RH) | Hygroscopicity: Moisture Sorption (DVS)-Anhydrous ([2]; at 75% RH) | Hygroscopicity: Moisture Sorption (DVS)-Anhydrous ([2]; at 90% RH) |
| --- | --- | --- | --- | --- | --- | --- | --- | --- | --- | --- | --- | --- | --- | --- |
| CC[C@@H](N)c1nc(N2CCC[C@H]2C)cc2c1CN(c1cccc(-c3nnc4n3[C@@H](C)CC4)n1)C2=O [Form 1, 4-[(1R)-1-aminopropyl]-2-{6-[(5S)-5-methyl-6,7-dihydro-5H-pyrrolo[2,1-c][1,2,4]triazol-3-yl]pyridin-2-yl}-6-[(2R)-2-methylpyrrolidin-1-yl]-2,3-dihydro-1H-pyrrolo[3,4-c]pyridin-1-one] | ~14% weight loss | hygroscopic | ~−2.4% | ~−0.1% | can lose crystallinity | peak shifting and disorder observed | Completely dehydrated | Change in mass-ref (%) at 60% RH: ~−6.2%; | did not | does not rehydrate | – | – | – | – |
| CC[C@@H](N)c1nc(N2CCC[C@H]2C)cc2c1CN(c1cccc(-c3nnc4n3[C@@H](C)CC4)n1)C2=O [Form 2, 4-[(1R)-1-aminopropyl]-2-{6-[(5S)-5-methyl-6,7-dihydro-5H-pyrrolo[2,1-c][1,2,4]triazol-3-yl]pyridin-2-yl}-6-[(2R)-2-methylpyrrolidin-1-yl]-2,3-dihydro-1H-pyrrolo[3,4-c]pyridin-1-one] | – | non-hygroscopic | – | – | – | – | – | – | – | – | Post-DVS PXRD is consistent with in- | ~0.2% at 60% RH | ~0.2% at 75% RH | ~0.2% at 90% RH |
